Holding throughout (type): cell-based, human
The subject of data set [1] is AhR (CYP1B1 target gene expression) in iPSCs. The data set is described as follows: Quantitative RT-PCR of AhR target gene CYP1B1 in iPSCs. Here is the method: RNA was extracted using the RNeasy kit (Qiagen) according to the manufacturer's instructions and DNase treated using the DNA-free kit (Ambion AM1906). Reverse transcription into cDNA was performed using the High Capacity cDNA Reverse Transcription Kit (Applied Biosystems 4368814). Quantitative (real time) PCR amplification of cDNA was performed using Taqman probes for AHR (Hs00169233 ml), CYP1B1 (Hs002382916 sl), HBA (Hs00361191 gl), HBB (Hs00758889 sl), HBG (Hs01629437 sl), vWF (Hs00169795 ml), PF4 (Hs00427220 gl), NF-E2 (Hs00232351 ml) and CD62P (Hs00927900 ml) and run on the Applied Biosystems StepOne machine. […]
To characterize AhR expression and functionality in both undifferentiated iPSCs and directly differentiated MEPs, AhR protein levels were determined via Western blot in these populations. AhR receptor was robustly expressed in day 30 and day 60 MEPs (FIG. 4A). However, AhR protein was not detected by western blotting in iPSC populations, and we postulated that AhR was expressed at extremely low levels in iPSCs, i.e., below the level of detectability with the antibodies used for Western blots. To test this hypothesis, the ability of FICZ to induce a prototypic AhR-target gene, CYPIB1, in iPSCs or, as a positive control, MEPs was assessed by quantitative RT-PCR.

The next data set relates to AhR. The data set is described as follows: Lentiviral AhR reporter (MMTV-DRE dsRed / luciferase) in MEPs. To be noted: day 30 MEPs, FICZ increased to 0.4 μM.
The next data set has as its system iPSC-derived MEPs. The data set is described as follows: Immunophenotyping of MEP lineage specification (CD235, CD71, CD41 FACS). The settings on record: MEPs in feeder-free conditions, continuous FICZ, day 15 to 30 and later. As for the experimental part:
Roughly 10^5 cells were collected, spun, and re-suspended in 0.5% BSA in PBS. Samples were incubated for 30 min at ambient temperature with human antibodies including CD41a-FITC (BD 555466), CD235-PE (BD 555570), CD71-FITC (BD 555536), washed and spun at 3300 rpm for 7 min, and re-suspended in 0.5% BSA in PBS with 1 ug/ml Propidium Iodide. Samples were run on a BD FACScalibur using Cellquest Pro software and analyzed via FloJo 8.7. For ploidy analysis, cells were treated with 1.5% NP-40 (Boston Bioproducts P-872) and 62.5 ug/ml Propidium Iodide in PBS immediately before FACScalibur interrogation. For murine bone marrow, samples were first incubated for 5 min at ambient temperature with murine conjugated antibody CD16/32 (BD 553142) before a 30 min incubation with c-Kit-PE (BD 553355), CD41a-FITC (BD 553848), Ter119-PE (BD 553673). For cell viability assays, 2-3×10 ^5 cells were collected, re-suspended in 8.8 ug/ml Hoecsht 33342 in PBS supplemented with 5% FBS. Samples were then incubated in the dark at 37° C. for 15 min, washed, and re-suspended in 1 ug/ml Propidium Iodide in 5% FBS. Samples were run on an LSR-II machine with FACSDiva software and analyzed via FloJo 8.7.
In our previous studies in which we noted exponential expansion of iPSC-derived MEPs (FIG. 3), the AhR-mediated effect that we noted allowed us to culture cells for extended periods of time (>120 days). […]

Data on 1 compound can be found in patent US12173320B2, “Production of red blood cells and platelets from stem cells” (BOSTON MEDICAL CENTER CORPORATION, priority 2012, dated 2024).

As to `O=Cc1c2c(cc3c1=Nc1ccccc1-3)=Nc1ccccc1-2` [FICZ, 6-formylindolo[3,2-b]carbazole], the CYP1B1 expression entry in data set [1] is given as “statistically significant increases”. Besides, in the data set with AhR, the DsRed reporter expression entry was “significant increase”. In addition, the “erythroid specification (CD71 / CD235 expression)” value with iPSC-derived MEPs is “progressive erythroid specification and maturation”.
